Legend:
TYK2 kinase = molecular target: T1, TYK2 kinase (Homo sapiens, UniProt P29597); assay: Inhibition assay of TYK2 kinase activity (ADP-Glo Kinase Assay); format: biochemical
T1 construct: purchased Life Technologies PR8440C
Experimental: Determination of inhibition of TYK2 kinase activity by the examples compounds disclosed herein
Inhibition assay of TYK2 kinase activity: the method of ADP-Glo™ Kinase Assay (Promega, V9102) was used to determine the inhibitory activity of the test compounds against TYK2 kinase.
TYK2 kinase (purchased from Life Technologies, article number: PR8440C) was diluted to the 2-fold final concentration (0.8 ng/mL) using reaction buffer (40 mM Tris-HCl, pH 7.5; 20 mM MgCl2; 0.1 mg/mL BSA; 1 mM DTT), and added to a 384-well plate at 5 μL/well. The test drugs were subjected to a 10-fold gradient dilution, from 10 μM, to obtain 6 concentrations, and added to experimental wells of the 384-well plate at 2.5 μL/well. 5 μL of water and 2.5 μL of buffer were added to negative control wells. 5 μL of TYK2 and 2.5 μL of water were added to positive control wells. After incubating for 10 minutes at room temperature, the substrate ATP and polyE4Y1 (Sigma, P0275) were added at 2.5 μL/well, mixed well, and then reacted at room temperature for 60 minutes. After the reaction was completed, the kinase activity was detected according to the instruction of the kit. First, the ADP-Glo reaction reagent was added at 10 μL/well, mixed well, and reacted at room temperature for 40 minutes. The kinase detection reagent was then added at 20 μL/well, mixed well, and then reacted at room temperature for 30 minutes. The detection was then performed and the IC50s of test drugs were calculated.

JAK1 kinase = JAK1 kinase (Homo sapiens, UniProt P23458); assay: Inhibition assay of JAK1 kinase activity (ADP-Glo Kinase Assay); format: biochemical
Chain of JAK1 kinase (P23458 whole entry): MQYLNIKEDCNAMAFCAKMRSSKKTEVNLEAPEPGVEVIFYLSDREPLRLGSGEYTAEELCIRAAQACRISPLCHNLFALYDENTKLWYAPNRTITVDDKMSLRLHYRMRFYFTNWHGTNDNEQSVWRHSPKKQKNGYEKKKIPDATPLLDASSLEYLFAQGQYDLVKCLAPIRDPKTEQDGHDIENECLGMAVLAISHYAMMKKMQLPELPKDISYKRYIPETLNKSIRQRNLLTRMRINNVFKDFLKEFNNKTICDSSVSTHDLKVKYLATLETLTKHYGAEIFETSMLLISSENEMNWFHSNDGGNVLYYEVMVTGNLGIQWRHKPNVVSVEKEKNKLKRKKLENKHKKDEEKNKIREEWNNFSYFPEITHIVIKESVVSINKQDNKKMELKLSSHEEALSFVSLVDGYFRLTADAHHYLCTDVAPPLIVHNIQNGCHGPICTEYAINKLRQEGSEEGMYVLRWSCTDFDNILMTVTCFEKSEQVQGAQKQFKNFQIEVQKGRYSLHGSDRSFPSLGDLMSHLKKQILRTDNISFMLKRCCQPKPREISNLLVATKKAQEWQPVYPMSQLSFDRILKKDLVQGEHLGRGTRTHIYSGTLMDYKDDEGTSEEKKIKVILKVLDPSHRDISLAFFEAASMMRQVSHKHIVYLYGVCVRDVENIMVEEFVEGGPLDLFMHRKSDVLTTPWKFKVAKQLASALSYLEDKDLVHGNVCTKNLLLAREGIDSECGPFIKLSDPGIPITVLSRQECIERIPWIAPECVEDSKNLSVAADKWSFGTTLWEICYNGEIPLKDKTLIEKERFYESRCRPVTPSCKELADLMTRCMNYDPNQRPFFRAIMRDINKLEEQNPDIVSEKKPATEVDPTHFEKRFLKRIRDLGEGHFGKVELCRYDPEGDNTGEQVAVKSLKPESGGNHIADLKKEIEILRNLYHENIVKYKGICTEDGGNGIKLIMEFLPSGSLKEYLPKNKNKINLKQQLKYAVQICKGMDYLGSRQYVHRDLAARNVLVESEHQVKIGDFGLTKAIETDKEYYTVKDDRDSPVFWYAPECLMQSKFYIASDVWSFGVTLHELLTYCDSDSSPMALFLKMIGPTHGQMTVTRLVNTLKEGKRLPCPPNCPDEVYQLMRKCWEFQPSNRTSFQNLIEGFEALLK
From the text: Inhibition assay of JAK1 kinase activity: the method in ADP-Glo™ Kinase Assay (Promega, V9102) was used to determine the inhibitory activity of the test compounds against JAK1 kinase.

T1 sequence (P29597 whole entry): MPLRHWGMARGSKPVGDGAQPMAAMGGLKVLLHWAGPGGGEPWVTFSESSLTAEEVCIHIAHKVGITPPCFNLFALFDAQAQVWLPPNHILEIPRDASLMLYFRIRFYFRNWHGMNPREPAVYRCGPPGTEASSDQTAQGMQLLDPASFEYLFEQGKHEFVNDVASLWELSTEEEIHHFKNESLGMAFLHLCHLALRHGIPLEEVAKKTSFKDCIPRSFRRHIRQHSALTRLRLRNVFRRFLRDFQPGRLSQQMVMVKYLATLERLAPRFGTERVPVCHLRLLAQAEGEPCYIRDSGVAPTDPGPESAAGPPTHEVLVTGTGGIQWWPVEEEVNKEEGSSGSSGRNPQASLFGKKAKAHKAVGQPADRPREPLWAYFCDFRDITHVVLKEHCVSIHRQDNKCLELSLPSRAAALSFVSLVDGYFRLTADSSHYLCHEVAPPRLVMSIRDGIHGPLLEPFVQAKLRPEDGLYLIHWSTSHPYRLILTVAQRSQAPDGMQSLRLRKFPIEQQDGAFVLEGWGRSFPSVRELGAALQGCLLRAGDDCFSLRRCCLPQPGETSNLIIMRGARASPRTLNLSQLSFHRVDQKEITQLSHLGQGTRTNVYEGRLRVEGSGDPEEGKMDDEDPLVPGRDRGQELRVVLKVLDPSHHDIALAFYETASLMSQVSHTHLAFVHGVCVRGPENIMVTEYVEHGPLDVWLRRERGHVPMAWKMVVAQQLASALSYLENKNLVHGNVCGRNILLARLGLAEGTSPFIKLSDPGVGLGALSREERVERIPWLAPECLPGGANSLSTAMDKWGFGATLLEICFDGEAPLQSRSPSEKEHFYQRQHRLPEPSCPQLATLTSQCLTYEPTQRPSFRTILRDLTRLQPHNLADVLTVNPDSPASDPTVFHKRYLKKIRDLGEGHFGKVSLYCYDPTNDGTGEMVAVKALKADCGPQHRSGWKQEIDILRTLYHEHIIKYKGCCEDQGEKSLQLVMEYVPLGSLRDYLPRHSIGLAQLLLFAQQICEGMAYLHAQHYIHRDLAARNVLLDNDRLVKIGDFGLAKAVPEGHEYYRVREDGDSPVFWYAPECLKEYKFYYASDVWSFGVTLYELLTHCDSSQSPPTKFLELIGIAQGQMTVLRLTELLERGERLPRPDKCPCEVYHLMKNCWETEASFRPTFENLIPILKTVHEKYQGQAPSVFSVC

| SMILES | IC50 (TYK2 kinase) [nM] | IC50 (JAK1 kinase) [nM] |
| --- | --- | --- |
| Cc1ccc(Nc2nc(Nc3ccc4c(c3)NCC(O)CO4)ncc2C(N)=O)nc1 (stereo not drawn) [Example 19, 4-((5-methylpyridin-2-yl)amino)-2-((3-hydroxy-2,3,4,5-tetrahydro-benzo[b][1,4]oxazepin-7-yl)amino)pyrimidin-5-carboxamide] | 10 to 100 | – |
| NC(=O)c1cnc(Nc2ccc3c(c2)NC[C@H](O)CO3)nc1NCCCN1CCOCC1 [Example 62, 4-((3-morpholinopropyl)amino)-2-(((S)-2,3,4,5-tetrahydro-3-hydroxybenzo[b][1,4]oxazepin-7-yl)amino)pyrimidin-5-carboxamide] | 10 to 100 | 10 to 100 |
| CC(Nc1nc(Nc2ccc3c(c2)NC[C@H](O)CO3)ncc1C(N)=O)C(F)(F)F (stereo partly drawn) [Example 32, 4-(1,1,1-trifluoropropan-2-ylamino)-2-(((S)-2,3,4,5-tetrahydro-3-hydroxybenzo[b][1,4]oxazepin-7-yl)amino)pyrimidin-5-carboxamide] | 10 to 100 | 10 to 100 |
| NC(=O)c1cnc(Nc2ccc3c(c2)NCC(O)CO3)nc1Nc1cccc(F)c1 (stereo not drawn) [Example 18, 4-((3-fluorophenyl)amino)-2-((3-hydroxy-2,3,4,5-tetrahydro-benzo[b][1,4]oxazepin-7-yl)amino)pyrimidin-5-carboxamide] | 10 to 100 | – |
| NC(=O)c1cnc(Nc2ccc3c(c2)NCC(O)CO3)nc1NCc1ccncc1 (stereo not drawn) [Example 15, 4-((pyridin-4-ylmethyl)amino)-2-((3-hydroxy-2,3,4,5-tetrahydro-benzo[b][1,4]oxazepin-7-yl)amino)pyrimidin-5-carboxamide] | 10 to 100 | – |
| NC(=O)c1cnc(Nc2ccc3c(c2)NCC(O)CO3)nc1NCc1ccc(F)cc1 (stereo not drawn) [Example 10, 4-((4-fluorobenzyl)amino)-2-((3-hydroxy-2,3,4,5-tetrahydro-benzo[b][1,4]oxazepin-7-yl)amino)pyrimidin-5-carboxamide] | 10 to 100 | – |
| COc1ccc(CNc2nc(Nc3ccc4c(c3)NCC(O)CO4)ncc2C(N)=O)cc1 (stereo not drawn) [Example 11, 4-((4-methoxybenzyl)amino)-2-((3-hydroxy-2,3,4,5-tetrahydro-benzo[b][1,4]oxazepin-7-yl)amino)pyrimidin-5-carboxamide] | 10 to 100 | – |
| CC(Nc1nc(Nc2ccc3c(c2)NCC(O)CO3)ncc1C(N)=O)c1ccccc1 (stereo not drawn) [Example 12, 4-((1-phenylethyl)amino)-2-((3-hydroxy-2,3,4,5-tetrahydro-benzo[b][1,4]oxazepin-7-yl)amino)pyrimidin-5-carboxamide] | 10 to 100 | – |
| CCCCO[C@@H]1CNc2cc(Nc3ncc(C(N)=O)c(NC4CC4)n3)ccc2OC1 [Example 85, 4-(cyclopropylamino)-2-(((R)-2,3,4,5-tetrahydro-3-butoxybenzo[b][1,4]oxazepin-7-yl)amino)pyrimidin-5-carboxamide] | < 10 | – |
| CC(C)(CO)Nc1nc(Nc2ccc3c(c2)NC[C@H](O)CO3)ncc1C(N)=O [Example 28, 4-((1-hydroxy-2-methylpropan-2-yl)amino)-2-(((S)-2,3,4,5-tetrahydro-3-hydroxybenzo[b][1,4]oxazepin-7-yl)amino)pyrimidin-5-carboxamide] | < 10 | – |
| CCS(=O)(=O)NCCNc1nc(Nc2ccc3c(c2)NC[C@H](O)CO3)ncc1C(N)=O [Example 71, 4-((2-(ethylsulfonamido)ethyl)amino)-2-(((S)-2,3,4,5-tetrahydro-3-hydroxybenzo[b][1,4]oxazepin-7-yl)amino)pyrimidin-5-carboxamide] | < 10 | – |
| NC(=O)c1cnc(Nc2ccc3c(c2)NCC(O)CO3)nc1NCc1ccccn1 (stereo not drawn) [Example 13, 4-((pyridin-2-ylmethyl)amino)-2-((3-hydroxy-2,3,4,5-tetrahydro-benzo[b][1,4]oxazepin-7-yl)amino)pyrimidin-5-carboxamide] | < 10 | – |
| NC(=O)c1cnc(Nc2ccc3c(c2)NCC(O)CO3)nc1NC1CCCc2ccccc21 (stereo not drawn) [Example 22, 4-((1,2,3,4-tetrahydronaphthalen-1-yl)amino)-2-((3-hydroxy-2,3,4,5-tetrahydro-benzo[b][1,4]oxazepin-7-yl)amino)pyrimidin-5-carboxamide] | 10 to 100 | – |
| NC(=O)c1cnc(Nc2ccc3c(c2)NCC(O)CO3)nc1Nc1ccccc1 (stereo not drawn) [Example 16, 4-(phenylamino)-2-((3-hydroxy-2,3,4,5-tetrahydro-benzo[b][1,4]oxazepin-7-yl)amino)pyrimidin-5-carboxamide] | 10 to 100 | – |
| CC(O)CNc1nc(Nc2ccc3c(c2)NCC(O)CO3)ncc1C(N)=O (stereo not drawn) [Example 23, 4-((2-hydroxypropyl)amino)-2-((3-hydroxy-2,3,4,5-tetrahydro-benzo[b][1,4]oxazepin-7-yl)amino)pyrimidin-5-carboxamide] | < 10 | – |
| CCCCCO[C@H]1CNc2cc(Nc3ncc(C(N)=O)c(NC4CC4)n3)ccc2OC1 [Example 88, 4-(cyclopropylamino)-2-(((S)-2,3,4,5-tetrahydro-3-pentoxybenzo[b][1,4]oxazepin-7-yl)amino)pyrimidin-5-carboxamide] | 10 to 100 | – |

Continued, values first:

| IC50 (TYK2 kinase) [nM] | IC50 (JAK1 kinase) [nM] | SMILES |
| --- | --- | --- |
| < 10 | – | CCO[C@@H]1CNc2cc(Nc3ncc(C(N)=O)c(NC4CC4)n3)ccc2OC1 [Example 83, 4-(cyclopropylamino)-2-(((R)-2,3,4,5-tetrahydro-3-ethoxybenzo[b][1,4]oxazepin-7-yl)amino)pyrimidin-5-carboxamide] |
| < 10 | < 10 | NC(=O)c1cnc(Nc2ccc3c(c2)NC[C@H](O)CO3)nc1NC12CC3CC(CC(O)(C3)C1)C2 [Example 43, 4-((1-hydroxyadamantan-3-yl)amino)-2-(((S)-2,3,4,5-tetrahydro-3-hydroxybenzo[b][1,4]oxazepin-7-yl)amino)pyrimidin-5-carboxamide] |
| < 10 | – | NC(=O)c1cnc(Nc2ccc3c(c2)NCC(O)CO3)nc1Nc1cccc2sccc12 (stereo not drawn) [Example 21, 4-(benzo[b]thiophen-4-ylamino)-2-((3-hydroxy-2,3,4,5-tetrahydro-benzo[b][1,4]oxazepin-7-yl)amino)pyrimidin-5-carboxamide] |
| < 10 | 10 to 100 | NC(=O)c1cnc(Nc2ccc3c(c2)NC[C@H](O)CO3)nc1NC1CCC(O)CC1 (stereo partly drawn) [Example 39, 4-((4-hydroxycyclohexyl)amino)-2(((S)-2,3,4,5-tetrahydro-3-hydroxybenzo[b][1,4]oxazepin-7-yl)amino)pyrimidin-5-carboxamide] |
| < 10 | 10 to 100 | CCNc1nc(Nc2ccc3c(c2)NC[C@H](O)CO3)ncc1C(N)=O [Example 40, 4-(ethylamino)-2-(((S)-2,3,4,5-tetrahydro-3-hydroxybenzo[b][1,4]oxazepin-7-yl)amino)pyrimidin-5-carboxamide] |
| < 10 | 10 to 100 | NC(=O)c1cnc(Nc2ccc3c(c2)NC[C@H](O)CO3)nc1NC1CCCCC1 [Example 33, 4-(cyclohexylamino)-2-(((S)-2,3,4,5-tetrahydro-3-hydroxybenzo[b][1,4]oxazepin-7-yl)amino)pyrimidin-5-carboxamide] |
| < 10 | 10 to 100 | NC(=O)c1cnc(Nc2ccc3c(c2)NC[C@H](O)CO3)nc1Nc1cccc(-c2nc[nH]n2)c1 [Example 35] |
| < 10 | < 10 | NC(=O)c1cnc(Nc2ccc3c(c2)NC[C@H](O)CO3)nc1NCc1ccnc2[nH]ccc12 [Example 41, 4-(((1H-pyrrolo[2,3-b]pyridin-4-yl)methyl)amino)-2-(((S)-2,3,4,5-tetrahydro-3-hydroxybenzo[b][1,4]oxazepin-7-yl)amino)pyrimidin-5-carboxamide] |
| < 10 | 10 to 100 | NC(=O)c1cnc(Nc2ccc3c(c2)NCC(O)CO3)nc1NC1CCCCC1 (stereo not drawn) [Example 4, 4-(cyclohexylamino)-2-((3-hydroxy-2,3,4,5-tetrahydro-benzo[b][1,4]oxazepin-7-yl)amino)pyrimidin-5-carboxamide] |
| < 10 | < 10 | NC(=O)c1cnc(Nc2ccc3c(c2)NC[C@H](O)CO3)nc1Nc1cccc2[nH]ccc12 [Example 29, 4-((1H-indol-4-yl)amino)-2-(((S)-2,3,4,5-tetrahydro-3-hydroxybenzo[b][1,4]oxazepin-7-yl)amino)pyrimidin-5-carboxamide] |
| < 10 | < 10 | NC(=O)c1cnc(Nc2ccc3c(c2)NC[C@H](O)CO3)nc1NC1CCC(O)C1 (stereo partly drawn) [Example 37, 4-((3-hydroxycyclopentyl)amino)-2-(((S)-2,3,4,5-tetrahydro-3-hydroxybenzo[b][1,4]oxazepin-7-yl)amino)pyrimidin-5-carboxamide] |
| < 10 | 10 to 100 | Cc1cccc(Nc2nc(Nc3ccc4c(c3)NCC(O)CO4)ncc2C(N)=O)c1 (stereo not drawn) [Example 17, 4-((3-methylphenyl)amino)-2-((3-hydroxy-2,3,4,5-tetrahydro-benzo[b][1,4]oxazepin-7-yl)amino)pyrimidin-5-carboxamide] |
| < 10 | 10 to 100 | Cn1ccc2c(Nc3nc(Nc4ccc5c(c4)NCC(O)CO5)ncc3C(N)=O)cccc21 (stereo not drawn) [Example 20, 4-((1-methyl-1H-indol-4-yl)amino)-2-((3-hydroxy-2,3,4,5-tetrahydro-benzo[b][1,4]oxazepin-7-yl)amino)pyrimidin-5-carboxamide] |

— US20200172529A1, “Chemical Compound, Pharmaceutical Composition Thereof, and Use and Application Thereof” (Beijing Hanmi Pharm. Co., Ltd., priority 2017, published 2020)
